Experimental findings from US12180249B1, “Compositions and methods for selective labeling of secondary amines” (Emory University, priority 2021, dated 2024) are described below.

This data set is described as follows: chemical stability of the triazene-coupling product under different conditions. Type of data set: physicochemical. The following applies: incubated in water:ACN mixture for 24 h. Here is the method:
The chemical stability of the triazene-coupling product was tested under different conditions. The triazene-coupling product acts as a protecting group for secondary amines and tolerates various coupling reagents, such as N,N′-diisopropylcarbodiimide (DIC), and bases, such as N,N-diisopropylethylamine (DIEA) and pyridine (PPR), which is required for Fmoc peptide synthesis. It is also stable to a strong protein disulfide reducing agent tris(2-carboxyethyl) phosphine (TCEP) and click chemistry (CuAAC) conditions. […] This is in contrast to the stability of the azo coupling product with Tyr, which degrades quickly in the presence of sodium dithionate to generate modified tyrosine
Even though the triazene-secondary amine linkage is stable under physiologically relevant conditions, experiments were performed to determine whether the conjugate can be decoupled in a traceless manner. Indeed, exposure of the triazene modified peptide 4 MDz-AKmeF to acidic conditions (10% TFA in H2O) led to its rapid cleavage in 5 min to unchanged peptide AKmeF, as observed by HPLC and MS analysis. It is noteworthy that the acidic cleavage generated original coupling partners in an unperturbed manner. In contrast, a handful of the coupling reactions are reversible, but the products derived from decoupling are modified versions of the original reactants. […]

For `COC(=O)C1CCCN1N=Nc1ccc(OC)cc1` (stereo not shown) [4 MDz-Pro-OMe], the “decomposition of the triazene-coupling product” value is listed as “no decomposition”.
